Results as given in patent US6071707A, “Phosphotyrosine mimics and method for identifying and using same” (Boehringer Ingelheim Pharmaceuticals, Inc., priority 1997, dated 2000).

Tested on: anti-phosphotyrosine antibody (MAb PY-20)
Assay: Method for identifying phosphotyrosine mimics: competitive binding to anti-phosphotyrosine antibody (ELISA)
Set-up: species or system mouse
Settings: ELISA criterion: 50% or greater inhibition of anti-phosphotyrosine binding 15 μg/ml; biotinylated peptide ECQ(pY)QPQP
Excerpt: The present invention also provides a convenient and sensitive method for identifying phosphotyrosine mimics by utilizing anti-phosphotyrosine antibodies to rapidly screen large numbers of non-phosphorylated test compounds. Specifically, this method comprises the steps of:
(a) contacting a non-phosphorylated test compound and a phosphotyrosine-containing substance with an anti-phosphotyrosine antibody; and
(b) detecting the ability of the non-phosphorylated test compound to inhibit the binding of the anti-phosphotyrosine antibody to the phosphotyrosine-containing substance.
A 96 well microtiter plate (Pierce #15126, Reacti-Bind Streptvidin coated polystyrene) was coated with 100 μl of biotinylated peptide ECQ(pY)QPQP (MW=1367.5) at a concentration of 15 nM in Tris Buffered Saline (TBST) (10 mM Tris.HCl, pH 7.5, 100 mM NaCl, 0.1% Tween 20) for 45 minutes at room temperature. The microtiter plate was washed 4 times with TBST. MAb PY-20 (Zymed #03-7799) was pre incubated for 45 minutes at a 2× concentration of 0.078 μg/ml ([…]) with a 2× concentration of non-phosphorylated test compounds in TBST. 100 μl of test compound/antibody solution was added in duplicate to each of the wells and incubated at room temperature. The microtiter plate was washed 4 times with TBST. […] Optical density was measured at 405 nm. […]

In the case of `O=C(O)c1ccccc1` [phenyl carboxylic acid], the “identification as phosphotyrosine mimic (inhibition of anti-phosphotyrosine antibody binding to a phosphotyrosine-containing substance)” value is reported as “identified as a phosphotyrosine mimic”.
